Source: US12606863B2, “Bioluminescent detection of DNA synthesis” (Promega Corporation, priority 2021, dated 2026)

Columns and labels:
Assay type in all cases: cell-based
[1] = tested on: A549 cells; experiment: Inhibition of DNA replication measured by modified nucleoside incorporation and NANOBiT luminescence, Example 2; details: A549 2,000 cells/well, increasing doxorubicin for 2 hours, then PBI-7931 or -7960 at 10 uM for 4 hours
Method: A549 cells plated at 2,000 cells/well were treated with increasing concentrations of the DNA replication inhibitor doxorubicin for 2 hours in a tissue culture incubator. […] No compound was added to control cells. To measure the amount of newly synthesized DNA, HT-LgBiT and HT-SmBiT were added to the cells at 50 nM final concentration.

[2] = tested on: A549 cells; experiment: Simultaneous incorporation of modified nucleosides, all probes added together, NanoBiT detection, Example 8; details: all probes added together at 5 or 12.5 uM each; A549 5,000 and 1,000 cells per well; compared to control cells
Method: (§1) Cells without modified nucleosides were used as a control (brown bars). Incorporation of modified nucleosides into DNA was determined by removing the media, fixing and permeabilizing the cells, denaturing DNA, and incubating with HaloTag-LgBiT (HT-LgBiT) and HaloTag-SmBiT (HT-SmBiT) diluted in PBS with 0.01% BSA at 50 nM final concentration. After 2 hours incubation, the reagents were removed, the samples were washed with PBS, NanoLuc substrate was added, and luminescence was measured (FIG. 4).
The experiment was conducted with A549 cells plated at 5,000 and 1,000 cells per well as described in Example 7.

[3] = tested on: A549 cells; experiment: Incorporation of modified nucleosides into newly synthesized DNA, NanoBiT detection, Example 7; details: A549 5000 cells/well, 20 uM or 50 uM, 4.5 hours
Method: as §1, with “A549 cells plated at 5000 cells/well were cultured in medium containing PBI-9391, PBI-9392, or PBI-9393 at 20 uM (light blue bars) or 50 uM (dark blue bars) final concentration for 4.5 hours. Cells” for “Cells”

[4] = tested on: A549 cells; experiment: Incorporation of modified nucleosides into newly synthesized DNA, detection with HT-LgBiT/HT-SmBiT (NANOBiT), Example 1; details: A549 500 cells/well, 10 uM, 4 hours, fixed, permeabilized, DNA denatured; HT-LgBiT and HT-SmBiT 50 nM
Method: A549 cells plated at 500 cells/well were cultured in medium containing PBI-7931 (FIG. 2A, top) or PBI-7960 (FIG. 2A, bottom) at 10 uM final concentration for 4 hours. Cells without modified nucleosides were used as control. After culturing, the media was removed, cells fixed, permeabilized, and DNA denatured using acid treatment. […] Following a one-hour incubation, NANOLUC substrate was added, and luminescence was measured (FIG. 2B).

[5] = tested on: A549 cells; experiment: Incorporation of modified chloroalkane nucleoside measured without DNA denaturation, Example 9; details: A549 5000 cells/well, 10 uM, 0.5 hours or 4 hours; HT-LgBiT and HT-SmBiT 25 nM
Method: A549 cells plated at 5000 cells/well were cultured in medium containing PBI-7960 at 10 uM final concentration for 0.5 hours (light blue bar) or 4 hours (dark blue bar). Cells without modified nucleosides were used as control (brown bar). Incorporation of modified nucleosides into DNA was determined by removing the media, fixing and permeabilizing the cells and incubating with HT-LgBiT and HT-SmBiT diluted in PBS with 0.01% BSA at 25 nM final concentration. After 1 hour incubation, the NanoLuc substrate was added, and luminescence was measured.

SMILES	Inhibition of DNA synthesis, detected by reduction in luminescence (FIG. 3) [1]	Light output after simultaneous incorporation into newly synthesized DNA (FIG. 5) [2]	Incorporation into newly synthesized DNA detected via NanoBiT (FIG. 4) [3]	Luminescence following incorporation of haloalkyl-modified nucleosides into newly-synthesized DNA (FIG. 2B) [4]	Incorporation detected without DNA denaturation (FIG. 6) [5]
COc1cccc2c1C(=O)c1c(O)c3c(c(O)c1C2=O)C[C@@](O)(C(=O)CO)C[C@@H]3O[C@H]1C[C@H](N)[C@H](O)[C@H](C)O1 [doxorubicin]	Inhibition of DNA synthesis	–	–	–	–
Nc1nc(=O)n([C@H]2C[C@H](O)[C@@H](CO)O2)cc1C#CCOC(=O)NCCOCCOCCCCCCCl [PBI-9391, 3-(4-amino-1-((2R,4S,5R)-4-hydroxy-5-(hydroxymethyl)tetrahydrofuran-2-yl)-2-oxo-1,2-dihydropyrimidin-5-yl)prop-2-yn-1-yl (2-(2-((6-chlorohexyl)oxy)ethoxy)ethyl)carbamate]	–	increase in light output	incorporated into newly synthesized DNA	–	–
O=C(NCCOCCOCCCCCCCl)OCC#Cc1cn([C@H]2CC(O)[C@@H](CO)O2)c(=O)[nH]c1=O (some centres unmarked) [PBI-7931]	–	–	–	Luminescence detected	–
Nc1ncnc2c1c(C#CCOC(=O)NCCOCCOCCCCCCCl)cn2[C@H]1C[C@H](O)[C@@H](CO)O1 [PBI-9393, 3-(4-amino-7-((2R,4S,5R)-4-hydroxy-5-(hydroxymethyl)tetrahydrofuran-2-yl)-7H-pyrrolo[2,3-d]pyrimidin-5-yl)prop-2-yn-1-yl(2-(2-((6-chlorohexyl)oxy)ethoxy)ethyl)carbamate]	–	increase in light output	incorporated into newly synthesized DNA	–	–
Nc1nc(=O)c2c(C#CCOC(=O)NCCOCCOCCCCCCCl)cn([C@H]3C[C@H](O)[C@@H](CO)O3)c2[nH]1 [PBI-9392, 3-(2-amino-7-((2R,4S,5R)-4-hydroxy-5-(hydroxymethyl)tetrahydrofuran-2-yl)-4-oxo-4,7-dihydro-1H-pyrrolo[2,3-d]pyrimidin-5-yl)prop-2-yn-1-yl(2-(2-((6-chlorohexyl)oxy)ethoxy)ethyl)carbamate]	–	increase in light output	incorporated into newly synthesized DNA	–	–
O=C(NCC#Cc1cn([C@H]2C[C@H](O)[C@@H](CO)O2)c(=O)[nH]c1=O)c1ccc(C(=O)NCCOCCOCCCCCCCl)cc1 [PBI-7960, N1-(2-(2-((6-chlorohexyl)oxy)ethoxy)ethyl)-N4-(3-(1-((2R,4S,5R)-4-hydroxy-5-(hydroxymethyl)tetrahydrofuran-2-yl)-2,4-dioxo-1,2,3,4-tetrahydropyrimidin-5-yl)prop-2-yn-1-yl)terephthalamide]	–	increase in light output	–	Luminescence detected	detected without DNA denaturation
